Assay [1] in a line: UVA-induced squalene oxidation in vitro model, MDA formed measured by fluorometric TBARS assay. In kind it is biochemical. The note with it: 20 J/cm^2 UVA; for Efficacy (percentage difference in MDA generation compared to the untreated, UV-stimulated control sample): 0.12 nM protoporphyrin IX, negative = reduction. How it is done:
The antioxidant test model described above was used to test efficacy of various antioxidants in reducing the oxidation of squalene in conditions reflecting approximately two (2) hours of intense sun exposure. The target Oxidizable Component was squalene, in an amount of 30 μL (9.7% w/w) per sample. The solvents selected were dimethyl sulfoxide, propylene glycol (PG), and 1-butanol, in amounts of 8.3% (v/v), 8.3% (v/v), and 83.5% (v/v) per sample, respectively. The tests further included a biological metabolite, specifically protoporphyrin IX, in an amount of 0.12 nM per sample. The exposure to UVA radiation, using a solar simulator (NewportR), Oriel Instruments U.S.A., model 91293-1000), was 20 J/cm^2, as measured by a calibrated UVA detector probe (Solar Light Company, Inc., model PMA2110-UVS) connected to a calibrated simulator controller (Solar Light Company, Inc., model DCS-2).
To prepare the antioxidant test solutions, the antioxidants were first dissolved (via vortexing and gentle heating if necessary) in a volume of dimethyl sulfoxide (DMSO) that achieved a target concentration for the predetermined use level as outlined in Table 1.
The antioxidant test solutions were then diluted by 50% with propylene glycol (PG). […] The bulk volume was vortexed immediately prior to pipetting 5 replicates of 300 μL samples into the wells of a 24-well plate. The plates were then exposed to the UVA radiation until the target UVA dose was achieved (20 J/cm^2), after which the plate was removed and the amount of MDA formed by lipid peroxidation was analyzed. Care was taken during the experiment to protect the samples from extraneous light oxidation throughout the solution preparation, sample plating, and after the UVA exposure prior to MDA quantitation.
The determination of the amount of MDA formed was performed by fluorometric analysis using a commercial TBARS assay kit (Sigma Aldrich, catalogue #MAK085) that reacts thiobarbituric acid with the MDA present in the sample to form a fluorometric product (λex=532/λem=553 nm), which can be easily quantitated with a monochromator-based microplate reader (Tecan Infinite M1000 Pro) and the accompanying software (Tecan i-control). […] The magnitude of efficacy for each sample, expressed as percentage reduction from the untreated control, was averaged for each antioxidant treatment.
In Table 2 below, “X” means that there was no significant reduction (p<0.05) in the MDA formation as compared to the UV-stimulated control. The % of concentration of the active in the formula tested is identified as “% conc”.

For assay [2] the following is noted: 1% in oil-in-water emulsion, topical twice daily 2 mg/cm^2 for 7 days on the back, human subjects, 10 J/cm^2 UVA; significant (p<0.05); cited from earlier work.
The mark [3] stands for this setting: 0.05% conc of active in formula.

In the case of `O=c1cc(-c2ccc(O)cc2)oc2cc(O)cc(O)c12` [Apigenin], in assay [1] (0.5% conc of active in formula), the “Efficacy (percentage difference in MDA generation compared to the untreated, UV-stimulated control sample)” value was −35%. Turning to `Cc1cc(C(C)(C)C)c(O)c(C(C)(C)C)c1` [Butylated hydroxytoluene (BHT), Butylated hydroxytoluene], the “Efficacy (percentage difference in MDA generation compared to the untreated, UV-stimulated control sample)” value in assay [1] (0.035% conc of active in formula) is −54%. Turning to `CC(C)(CO)[C@H](O)C(=O)NCCCO` [D-Panthenol (Provitamin B5), D-Panthenol], the “Efficacy (percentage difference in MDA generation compared to the untreated, UV-stimulated control sample)” value is on record as −21% in assay [1] (0.25% conc of active in formula) and −18% in assay [1] (0.5% conc of active in formula).

As to `COc1cc(/C=C/C(=O)O)ccc1O` [Ferulic acid], the entries for the “Efficacy (percentage difference in MDA generation compared to the untreated, UV-stimulated control sample)” value in assay [1] (0.01% conc of active in formula), in assay [1] (setting [3]) and in assay [1] (0.1% conc of active in formula) were −47%, −41% and −39%, respectively. `O=C(O)CO` [Glycolic acid]: the “Efficacy (percentage difference in MDA generation compared to the untreated, UV-stimulated control sample)” value in assay [1] (3% conc of active in formula) is recorded as −25%. Regarding `O=C(O)C(O)c1ccccc1` (centres unmarked) [Mandelic acid], the “Efficacy (percentage difference in MDA generation compared to the untreated, UV-stimulated control sample)” value came out at 81% in assay [1] (2% conc of active in formula) and 69% in assay [1] (3% conc of active in formula). As for `NC(=O)c1cccnc1` [Niacinamide], in assay [1] (0.5% conc of active in formula), the “Efficacy (percentage difference in MDA generation compared to the untreated, UV-stimulated control sample)” value was found to be 58%.

As to `Cc1c(C)c2c(c(C)c1O)CC[C@@](C)(CCC[C@H](C)CCC[C@H](C)CCCC(C)C)O2` [Vitamin E (alpha-tocopherol), alpha-tocopherol], the “Efficacy (percentage difference in MDA generation compared to the untreated, UV-stimulated control sample)” value is reported as −61% in assay [1] (0.1% conc of active in formula), −78% in assay [1] (0.5% conc of active in formula) and −81% in assay [1] (1% conc of active in formula). As for `CC(=O)Oc1c(C)c(C)c2c(c1C)CCC(C)(CCC[C@H](C)CCC[C@H](C)CCCC(C)C)O2` (some centres unmarked) [Vitamin E acetate], in assay [1] (0.1% conc of active in formula), the “Efficacy (percentage difference in MDA generation compared to the untreated, UV-stimulated control sample)” value is −36%. For `O=C(O)/C=C/c1ccc(O)cc1` [p-coumeric acid], the results for the “Efficacy (percentage difference in MDA generation compared to the untreated, UV-stimulated control sample)” value in assay [1] (setting [3]) and in assay [1] (0.1% conc of active in formula) were −48% and −55%, respectively. Regarding `O=C1O[C@H]([C@@H](O)CO)C([O-])=C1OP(=O)([O-])[O-].[Na+].[Na+].[Na+]` [sodium ascorbyl phosphate], the “Efficacy (percentage difference in MDA generation compared to the untreated, UV-stimulated control sample)” value in assay [1] (1% conc of active in formula) is given as −41%. In addition, the “reduction of UV-induced squalene oxidation as compared to the control sample” value in assay [1] (1%, in vitro model) was 41%. In addition, the “reduction of UVA-induced squalene oxidation compared to a placebo formulation” value in assay [2] is 30%.

The values above are taken from patent US20240345054A1, “Method of Screening Antioxidants” (Johnson & Johnson Consumer Inc., priority 2021, published 2024).
